According to US9683025B2, “Methods and compositions for treating cancer and inflammatory diseases” (The Regents of the University of Colorado, A Body Corporate, priority 2013, dated 2017):
Where two headings read alike, the source gives them in different places. Where a SMILES comes first, the peptide text is derived from it. Where no end group is shown, it is not given here.

How the values were obtained:
CtBP-E1A interaction = CtBP-E1A interaction (Homo sapiens, UniProt Q13363); test: CtBP-E1A interaction inhibition (AlphaScreen / fluorescence polarization competition assay); assay type: binding
Protocol: The ability of peptides to inhibit CtBP binding can be monitored by two biochemical assays. An AlphaScreen assay (Perkin-Elmer) was developed that is capable of detecting the CtBP-E1A interaction. Purified GST-E1A and 6xHis-CtBP are incubated with glutathione-conjugated donor beads and nickel-chelated acceptor beads respectively. The interaction between CtBP and E1A brings the donor and acceptor beads in close proximity, which produces a fluorescence signal after laser excitation and can be detected using the EnVision plate reader. A peptide that inhibits this interaction will limit the proximity of the beads and thus a loss in fluorescence signal will occur. In addition to the alphascreen, a fluorescence polarization based assay with a fluorescein-labeled 14mer E1A peptide ([…] (SEQ ID NO: 1)) was also developed. Purified 6xHis-CtBP is incubated with the fluorescein-labeled E1A peptide and changes in the polarization value of the labeled peptide are detected using the EnVision plate reader. A decrease in peptide binding to CtBP can be detected by an […], and used to monitor peptide inhibition. IC50 values of designed peptides can be determined using either of these assays through the addition of increasing amounts in each well and monitoring the degree of inhibition of the CtBP-E1A interaction.
Multiple amino acid sequences may appear at positions outside the conserved peptide motif. The most frequently occurring amino acids in these positions are used to design the peptides that bind CtBP with the highest affinity. The affinity of these new peptides is compared to the original 14mer E1A peptide (SEQ ID NO:1) by comparing the IC50 of these peptides in inhibiting the CtBP/E1A protein interaction in a competition assay. The peptide identified from phage display that competes with the CtBP/E1A protein interaction better than the original 14mer E1A peptide is selected and conjugated to the cell penetrating peptide of the present invention. Also provided in Table 3 are […] for selected peptides.
The ability of peptides to inhibit CtBP binding can be monitored by two biochemical assays. An AlphaScreen assay (Perkin-Elmer) was developed that is capable of detecting the CtBP-E1A interaction. Purified GST-E1A and 6xHis-CtBP are incubated with glutathione-conjugated donor beads and nickel-chelated acceptor beads respectively. The interaction between CtBP and E1A brings the donor and acceptor beads in close proximity, which produces a fluorescence signal after laser excitation and can be detected using the EnVision plate reader. A peptide that inhibits this interaction will limit the proximity of the beads and thus a loss in fluorescence signal will occur. In addition to the alphascreen, a fluorescence polarization based assay with a fluorescein-labeled 14mer E1A peptide ([…] (SEQ ID NO: 1)) was also developed. Purified 6xHis-CtBP is incubated with the fluorescein-labeled E1A peptide and changes in the polarization value of the labeled peptide are detected using the EnVision plate reader. A decrease in peptide binding to CtBP can be detected by an […], and used to monitor peptide inhibition. IC50 values of designed peptides can be determined using either of these assays through the addition of increasing amounts in each well and monitoring the degree of inhibition of the CtBP-E1A interaction. Also provided in Table 4 are IC50 for selected peptides.

CtBP [1] = molecular target: T1, CtBP (Homo sapiens, UniProt Q13363); test: Fluorescence polarization competition of unlabeled peptide with FITC-labeled 14mer peptide; assay type: binding
T1 construct: 6xHis
Protocol: (§1) Additional peptides were tested for in vitro inhibitory potency (Table 5). For Kd determination, FITC-labeled peptide (FITC-peptide) was incubated with varying concentrations of CtBP. The fluorescence polarization values of the FITC-peptide were measured and plotted against CtBP concentration to determine Kd of the FITC-peptide with CtBP using the Prism program. […] For IC50 determination, a fluorescence polarization assay was utilized. […] Increasing concentrations of unlabeled peptide were added to compete with the FITC-labeled peptide, leading to a decreased fluorescence polarization value.

CtBP [2] = molecular target: T1, CtBP; test: Fluorescence polarization Kd determination of FITC-peptide with CtBP; assay type: binding; details: read-out: Kd
Protocol: as §1

[3] = test system: IMQ-based psoriasis model; test: IMQ-based psoriasis model; assay type: in vivo, mouse; details: treated mice versus PBS control
Protocol: To elucidate the molecular mechanisms for the Pep1-E1A blocker, H&E and immunostaining for proliferative and inflammatory markers was performed.

[4] = test system: IMQ-based psoriasis model; test: IMQ-based psoriasis model; assay type: in vivo, mouse; details: Example 12, subcutaneously applied on the skin, FIG. 15B
[5] = IC50 value, Table 3, inhibition of CtBP/E1A protein interaction

For CC(=O)NCCCC[C@H](NC(=O)[C@H](CS)NC(=O)[C@H](CO)NC(=O)[C@H](CC(C)C)NC(=O)[C@H](CC(=O)O)NC(=O)[C@H](CC(C)C)NC(=O)[C@@H]1CCCN1C(=O)[C@H](CCC(N)=O)NC(=O)CNC(=O)[C@@H]1CCCN1C(=O)[C@@H](N)CCC(=O)O)C(=O)N[C@@H](CCCNC(=N)N)C(=O)N1CCC[C@H]1C(=O)N[C@@H](CCCNC(=N)N)C(=O)O [K239-Acetylated] (H-EPGQPLDLSCK(Ac)RPR-OH; N-terminus and C-terminus assumed), which IC50 (CtBP-E1A interaction; [5]) is on record?
The IC50 was 26.6 µM.

With CC(C)C[C@H](NC(=O)[C@H](CC(=O)O)NC(=O)[C@H](CC(C)C)NC(=O)[C@@H]1CCCN1C(=O)[C@H](CCC(N)=O)NC(=O)CNC(=O)[C@@H]1CCCN1C(=O)[C@@H](N)CCC(=O)O)C(=O)N[C@@H](CO)C(=O)N[C@@H](CS)C(=O)N[C@@H](C)C(=O)N[C@@H](CCCNC(=N)N)C(=O)N1CCC[C@H]1C(=O)N[C@@H](CCCNC(=N)N)C(=O)O [Peptide K239A] (H-EPGQPLDLSCARPR-OH; N-terminus and C-terminus assumed) as the compound, how does the IC50 (CtBP-E1A interaction; [5]) read?
Its IC50 is 21.9 µM.

With CC(C)C[C@H](NC(=O)[C@H](CC(=O)O)NC(=O)[C@H](CC(C)C)NC(=O)[C@@H]1CCCN1C(=O)[C@H](CCC(N)=O)NC(=O)CNC(=O)[C@@H]1CCCN1C(=O)[C@@H](N)CCC(=O)O)C(=O)N[C@@H](CO)C(=O)N[C@@H](CS)C(=O)N[C@@H](CCC(N)=O)C(=O)N[C@@H](CCCNC(=N)N)C(=O)N1CCC[C@H]1C(=O)N[C@@H](CCCNC(=N)N)C(=O)O [Peptide K239Q] (H-EPGQPLDLSCQRPR-OH; N-terminus and C-terminus assumed) as the compound, how does the IC50 (CtBP-E1A interaction; [5]) read?
Its IC50 is 12 µM.

With CC(C)C[C@H](NC(=O)[C@H](CC(=O)O)NC(=O)[C@H](CC(C)C)NC(=O)[C@@H]1CCCN1C(=O)CNC(=O)[C@H](CC(=O)O)NC(=O)CNC(=O)CN)C(=O)N[C@@H](CS)C(=O)N[C@@H](CS)C(=O)N[C@@H](CCCNC(=N)N)C(=O)N[C@@H](CCCCN)C(=O)N[C@@H](CCCNC(=N)N)C(=O)N1CCC[C@H]1C(=O)O [SEQ ID NO:133] (H-GGDGPLDLCCRKRP-OH; N-terminus and C-terminus assumed) as the compound, how does the IC50 (CtBP [1]) read?
The IC50 was 18.8 µM.

For CC(C)C[C@H](NC(=O)[C@H](CC(N)=O)NC(=O)[C@H](CC(C)C)NC(=O)[C@@H]1CCCN1C(=O)[C@H](CCC(=O)O)NC(=O)[C@H](CC(=O)O)NC(=O)[C@@H](NC(=O)[C@@H]1CCCN1)[C@@H](C)O)C(=O)N[C@@H](CO)C(=O)N[C@@H](CC(C)C)C(=O)N[C@@H](CCCCN)C(=O)N[C@@H](CCCNC(=N)N)C(=O)N1CCC[C@H]1C(=O)N[C@@H](CCCNC(=N)N)C(=O)O [SEQ ID NO:134] (H-PTDEPLNLSLKRPR-OH; N-terminus and C-terminus assumed), which IC50 (CtBP [1]) is on record?
Its IC50 is 4.4 µM.

Which results are given for CC(C)C[C@H](NC(=O)[C@H](CC(=O)O)NC(=O)[C@H](CC(C)C)NC(=O)[C@@H]1CCCN1C(=O)[C@H](CCC(N)=O)NC(=O)CNC(=O)[C@@H]1CCCN1C(=O)[C@H](CCC(=O)O)NC(=O)[C@H](CCC(=O)O)NC(=O)[C@H](CC(C)C)NC(=O)[C@H](CCC(N)=O)NC(=O)[C@@H]1CCCN1C(=O)[C@@H]1CCCN1C(=O)[C@H](CCCNC(=N)N)NC(=O)[C@H](CCCNC(=N)N)NC(=O)[C@H](CCCNC(=N)N)NC(=O)[C@H](CCC(N)=O)NC(=O)[C@H](CCCNC(=N)N)NC(=O)[C@H](CCCNC(=N)N)NC(=O)[C@H](CCCCN)NC(=O)[C@H](CCCCN)NC(=O)[C@H](CCCNC(=N)N)NC(=O)CN)C(=O)N[C@@H](CO)C(=O)N[C@@H](CS)C(=O)N[C@@H](CCCCN)C(=O)N[C@@H](CCCNC(=N)N)C(=O)N1CCC[C@H]1C(=O)N[C@@H](CCCNC(=N)N)C(=O)N[C@@H](CC(=O)O)C(=O)N[C@@H](Cc1ccc(O)cc1)C(=O)N[C@@H](CCCCN)C(=O)N[C@@H](CC(=O)O)C(=O)N[C@@H](CC(=O)O)C(=O)N[C@@H](CC(=O)O)C(=O)N[C@@H](CC(=O)O)C(=O)N[C@@H](CCCCN)C(=O)O [Tat-E1A fusion] (H-GRKKRRQRRRPPQLEEPGQPLDLSCKRPRDYKDDDDK-OH; N-terminus and C-terminus assumed)?
IC50 (CtBP-E1A interaction; IC50 of inhibition of the CtBP/E1A interaction, FIG. 3, peptide purified from E. coli): ~7.7 µM; IC50 (CtBP-E1A interaction; [5]): 1.7 µM

How did the IC50 (CtBP-E1A interaction; [5]) turn out when CC(C)C[C@H](NC(=O)[C@H](CC(=O)O)NC(=O)[C@H](CC(C)C)NC(=O)[C@@H]1CCCN1C(=O)[C@H](CCC(N)=O)NC(=O)CNC(=O)[C@@H]1CCCN1C(=O)[C@H](CCC(=O)O)NC(=O)[C@H](CCC(=O)O)NC(=O)[C@H](CC(C)C)NC(=O)[C@H](CCC(N)=O)NC(=O)[C@@H]1CCCN1C(=O)[C@@H]1CCCN1C(=O)[C@H](CCCNC(=N)N)NC(=O)[C@H](CCCNC(=N)N)NC(=O)[C@H](CCCNC(=N)N)NC(=O)[C@H](CCC(N)=O)NC(=O)[C@H](CCCNC(=N)N)NC(=O)[C@H](CCCNC(=N)N)NC(=O)[C@H](CCCCN)NC(=O)[C@H](CCCCN)NC(=O)[C@H](CCCNC(=N)N)NC(=O)CN)C(=O)N[C@@H](CO)C(=O)N[C@@H](CS)C(=O)N[C@@H](CCC(N)=O)C(=O)N[C@@H](CCCNC(=N)N)C(=O)N1CCC[C@H]1C(=O)N[C@@H](CCCNC(=N)N)C(=O)N[C@@H](CC(=O)O)C(=O)N[C@@H](Cc1ccc(O)cc1)C(=O)N[C@@H](CCCCN)C(=O)N[C@@H](CC(=O)O)C(=O)N[C@@H](CC(=O)O)C(=O)N[C@@H](CC(=O)O)C(=O)N[C@@H](CC(=O)O)C(=O)N[C@@H](CCCCN)C(=O)O [Tat-E1A-Flag (K239Q)] (H-GRKKRRQRRRPPQLEEPGQPLDLSCQRPRDYKDDDDK-OH; N-terminus and C-terminus assumed) was run?
Its IC50 is 7.7 µM.

Which results are given for CC(C)C[C@H](NC(=O)[C@H](CCC(=O)O)NC(=O)[C@H](CC(=O)O)NC(=O)[C@H](CC(C)C)NC(=O)[C@@H]1CCCN1C(=O)[C@H](CCC(N)=O)NC(=O)CNC(=O)[C@@H]1CCCN1C(=O)[C@H](CCC(=O)O)NC(=O)[C@H](CCC(=O)O)NC(=O)[C@H](CC(C)C)NC(=O)[C@H](CCC(N)=O)NC(=O)[C@@H]1CCCN1C(=O)[C@@H]1CCCN1C(=O)[C@H](CCCNC(=N)N)NC(=O)[C@H](CCCNC(=N)N)NC(=O)[C@H](CCCNC(=N)N)NC(=O)[C@H](CCC(N)=O)NC(=O)[C@H](CCCNC(=N)N)NC(=O)[C@H](CCCNC(=N)N)NC(=O)[C@H](CCCCN)NC(=O)[C@H](CCCCN)NC(=O)[C@H](CCCNC(=N)N)NC(=O)CN)C(=O)N[C@@H](CS)C(=O)N[C@@H](CCCCN)C(=O)N[C@@H](CCCNC(=N)N)C(=O)N1CCC[C@H]1C(=O)N[C@@H](CCCNC(=N)N)C(=O)N[C@@H](CC(=O)O)C(=O)N[C@@H](Cc1ccc(O)cc1)C(=O)N[C@@H](CCCCN)C(=O)N[C@@H](CC(=O)O)C(=O)N[C@@H](CC(=O)O)C(=O)N[C@@H](CC(=O)O)C(=O)N[C@@H](CC(=O)O)C(=O)N[C@@H](CCCCN)C(=O)O [Tat-E1A-Flag (LS-EL)] (H-GRKKRRQRRRPPQLEEPGQPLDELCKRPRDYKDDDDK-OH)?
IC50 (CtBP-E1A interaction; [5]): > 200 µM; IC50 (CtBP-E1A interaction; IC50 value, Table 4, inhibition of CtBP-E1A interaction): > 200 µM

EPGQPLSLSCKRPR [SEQ ID NO:135] was tested. Which IC50 (CtBP [1]; Table 5, 50% reduction of fluorescence polarization value) did it give?
Its IC50 is “did not inhibit CtBP”.

Which results are given for EQTVPVDLSVARPR [SEQ ID NO:132]?
Kd (CtBP [2]; Table 5, FITC-peptide with CtBP): 2.2 µM; Kd (CtBP [2]; affinity to CtBP1, Example 12): 2.2 µM

How did the “resistance to IMQ-induction of psoriasis” value [3] turn out when “GRKKRRQRRRPPQGGEQTVPVDLSVARPRGL (also: conjugated to FITC) [Tat-E1A peptide]” was run?
Its value is “showed resistance”.

What about the psoriasis-like phenotype [4] of the same compound?
Its psoriasis-like phenotype is “significantly reduced”.

For “GSHMKETWWETWWTEWSQPKKKRKVLEEPGQPLDLSCQRPRDYKDDDDK [Pep1-E1A-Flag (K239Q) GSHM v.1]”, which “resistance to IMQ-induction of psoriasis” value [3] is on record?
Its value is “showed resistance”.

Which IC50 (CtBP-E1A interaction; [5]) does the source give for “KETWWETWWTEWSQPKKKRKVLEEPGQPLDLSCKRPRDYKDDDDK [Pep1-E1A-Flag]” here?
The IC50 was 26.6 µM.
